From patent US9669003B2, “Use of flavone and flavanone derivatives in preparation of sedative and hypnotic drugs” (priority 2012, dated 2017)
Marks after values point to notes of the source that are not given here.

Legend:
Format in all cases: in vivo
[1] = system: Kunming mice; assay: Influence on autonomic activity of normal mice (ZIL-2 mice autonomic activity meter, counts within 10 min); conditions: intragastric, x ± s; for Times of activities in 1 h after drug administration/10 min: 1 h after administration; for Times of activities in 2 h after drug administration/10 min: 2 h after administration; for Times of activities in 24 h after drug administration/10 min: 24 h after administration
From the text: (§1) 1.1 Animals for experiments: Kunming mice, weighting 18.9˜22.2 g for females, and 20.2˜23.0 g for males, licensed under SCXK-(Ji) 2007-0003, and provided by The experimental animal centre, Jilin University.
(§2) 1.2 Chemicals for experiments: The flavone derivatives provided in Examples 1-41 and the flavanone derivatives provided in Examples 42-71 are all formulated with 0.5% sodium carboxymethyl cellulose as solutions with required concentrations.
(§3) 1.3 Grouping of animals: 6420 animals are employed in the entire experiments and 2140 of the animals are randomly divided into 214 groups by gender, and the […] include: control group, low dosage group for each experimental drugs (25 mg/kg), medium dosage group for each experimental drugs (50 mg/kg), and high dosage group for each experimental drugs (100 mg/kg). Each group has 10 animals and either female or male constitutes half of the group. The groups are used in behavior observation and voluntary action observation. The other 4280 animals are randomly divided into 214 groups by gender respectively (the grouping way is the same with that described above). Each group has 20 animals and either female or male constitutes half of the group. In each group, 10 animals are used in hypnosis experimentations with pentobarbital sodium doses below the threshold, and the other 10 animals are used hypnosis experimentations with pentobarbital sodium doses at the threshold.
1.4 Experimental instrument and agents: ZIL-2 mice autonomic activity meter, production of Institute of Materia Medica of Chinese Academy of Medical Sciences; pentobarbital sodium, Lot: 100808, 25 g/bottle, Beijing Chemical Reagent Company equipment imported from Germany.
1.5.2 Influence on Autonomic Activity of Normal Mice
After observing the general behavior, in 1 h, 2 h and 24 h after drug administration, respectively, ZIL-2 mice autonomic activity meter is put respectively. Number of autonomic activities of each group of mice is measured within 10 min. Results among groups are compared.
(§4) Number of autonomic activities is detected by leneve Test for homogeneity of variance. If the homogeneity of variance is good (P>0.05), statistical analysis is performed with ANOVA. If ANOVA have statistical significance (P≦0.05), Dunnett's test for multiple comparisons analysis is performed. Number of animals of sleeping mice is applied of ANOVA. Incidence rate of animal asleep is applied of χ2 test. Sleep latency and sleep duration are recorded in min, averaged by group, represented by standard deviation, and undergo statistical analysis using ANOVA.

[2] = system: Kunming mice; assay: Influence on hypnosis effect with pentobarbital sodium doses below the threshold (25 mg/kg i.p.); conditions: pentobarbital sodium 25 mg/kg i.p. 60 min later, sleep observed in 30 min, n = 10
From the text: as §1, §2, §3
1.5.3 Influence on Hypnosis Effect with Mice Pentobarbital Sodium Doses Below the Threshold
(§5) The drug is intragastric administered in mice for single time, 2 animals of each group are given drug per round with the dosing interval of 40 min (±5 min). According to the administration round, in 60 min (±5 min) of each round after the drug administration, the animals were intraperitoneally injected 0.3% sodium pentobarbital 25 mg/kg, respectively. Sleep condition of the animals were observed within 30 min (under sleep determination standard of loss of righting reflex more than 1 min). After animals undergo loss of righting reflex, number of the animals is recorded, to calculate sleep percentage.
as §4

[3] = system: Kunming mice; assay: Influence on hypnosis effect with pentobarbital sodium doses at the threshold (50 mg/kg i.p.); conditions: pentobarbital sodium 50 mg/kg i.p. 60 min later, x ± s, n = 10
From the text: as §1, §2, §3
1.5.4 Influence on Hypnosis Effect with Mice Pentobarbital Sodium Doses at the Threshold
as §5, with “50” for “25”, “Time to fall asleep (sleep latency) and sleep duration” for “Sleep condition”, “recorded” for “observed”, “under” for “30 min (under”, “min.” for “min). After animals undergo loss of righting reflex, number of the animals is recorded, to calculate sleep percentage.”
as §4

[4] = test drug 25 mg/kg intragastric single dose
[5] = test drug 50 mg/kg intragastric single dose
[6] = test drug 100 mg/kg intragastric single dose
[7] = 25 mg/kg intragastric single dose
[8] = 50 mg/kg intragastric single dose
[9] = 100 mg/kg intragastric single dose

Row | Structure (SMILES) | Times of activities in 1 h after drug administration/10 min ([1]; 25 mg/kg, n = 10) | Times of activities in 2 h after drug administration/10 min ([1]; 25 mg/kg, n = 10) | Times of activities in 24 h after drug administration/10 min ([1]; 25 mg/kg, n = 10) | Times of activities in 1 h after drug administration/10 min ([1]; 50 mg/kg, n = 10) | Times of activities in 2 h after drug administration/10 min ([1]; 50 mg/kg, n = 10) | Times of activities in 24 h after drug administration/10 min ([1]; 50 mg/kg, n = 10) | Times of activities in 1 h after drug administration/10 min ([1]; 100 mg/kg, n = 10) | Times of activities in 2 h after drug administration/10 min ([1]; 100 mg/kg, n = 10) | Number of sleeping animals [2, 4] | rate of sleeping (%) [2, 4] | Number of sleeping animals [2, 5] | rate of sleeping (%) [2, 5] | Number of sleeping animals [2, 6] | rate of sleeping (%) [2, 6] | duration of sleep [3, 7] [min] | time to sleep [3, 7] [min] | duration of sleep [3, 8] [min] | time to sleep [3, 8] [min] | duration of sleep [3, 9] [min] | time to sleep [3, 9] [min] | other results
1 | COc1ccc(-c2cc(=O)c3c(OC)cc(O)cc3o2)cc1OC [Example 5, 7-hydroxyl-5,3′,4′-trimethoxyl-flavone] | 265.2 ± 50.1 /10 min | 243.2 ± 42.8 /10 min | 292.8 ± 82.1 /10 min | 175.4 ± 50.3 /10 min | 190.2 ± 56.8 /10 min | 295.3 ± 91.3 /10 min | 120.2 ± 39.0 /10 min | 116.3 ± 49.2 /10 min | 6 | 60** % | 8 | 80*** % | 9 | 90*** % | 59.92 ± 17.44 | 3.39 ± 1.71 | 74.82 ± 22.78 | 3.26 ± 1.47 | 89.01 ± 18.25 | 2.23 ± 1.19 | Times of activities in 24 h after drug administration/10 min ([1]; 100 mg/kg, n = 10): 283.5 ± 94.0 /10 min
2 | COc1cc(OC)c2c(=O)cc(-c3ccc(OC)c(OC)c3)oc2c1 [Example 7, 5,7,3′,4′-tetramethoxyl-flavone] |  |  |  |  |  |  |  |  | 5 | 50** % | 6 | 60** % | 9 | 90*** % | 61.21 ± 22.82 | 3.25 ± 1.93 | 79.27 ± 21.17 | 3.03 ± 1.41 | 87.43 ± 21.56 | 2.32 ± 1.21 | Times of activities in 1 h after drug administration/10 min ([1]; 25 mg/kg, n = 10, 25 mg/kg): 248.5 ± 55.1 /10 min; Times of activities in 2 h after drug administration/10 min ([1]; 25 mg/kg, n = 10, 25 mg/kg): 234.1 ± 45.8 /10 min; Times of activities in 24 h after drug administration/10 min ([1]; 25 mg/kg, n = 10, 25 mg/kg): 303.4 ± 75.8 /10 min; Times of activities in 1 h after drug administration/10 min ([1]; 50 mg/kg, n = 10, 50 mg/kg): 184.7 ± 52.6 /10 min; Times of activities in 2 h after drug administration/10 min ([1]; 50 mg/kg, n = 10, 50 mg/kg): 164.4 ± 45.8 /10 min; Times of activities in 24 h after drug administration/10 min ([1]; 50 mg/kg, n = 10, 50 mg/kg): 318.5 ± 83.6 /10 min; Times of activities in 1 h after drug administration/10 min ([1]; 100 mg/kg, n = 10, 100 mg/kg): 125.2 ± 44.5 /10 min; Times of activities in 2 h after drug administration/10 min ([1]; 100 mg/kg, n = 10, 100 mg/kg): 122.2 ± 48.6 /10 min; Times of activities in 24 h after drug administration/10 min ([1]; 100 mg/kg, n = 10, 100 mg/kg): 329.8 ± 53.2 /10 min
3 | COc1ccc(-c2cc(=O)c3c(OC)c(OC)c(OC)c(OC)c3o2)cc1 [Example 8, 5,6,7,8,4′-penta methoxyl-flavone] | 301.3 ± 43.5 /10 min | 290.2 ± 39.6 /10 min | 286.4 ± 75.2 /10 min | 262.1 ± 55.5 /10 min | 244.7 ± 53.9 /10 min | 299.8 ± 76.4 /10 min | 185.7 ± 41.6 /10 min | 167.2 ± 48.5 /10 min | 5 | 50** % | 6 | 60** % | 8 | 80*** % | 21.52 ± 16.93 | 5.40 ± 1.83 | 29.13 ± 26.44 | 5.05 ± 1.73 | 66.82 ± 33.63 | 3.21 ± 1.32 | Times of activities in 24 h after drug administration/10 min ([1]; 100 mg/kg, n = 10): 280.4 ± 84.2 /10 min
4 | COc1ccc(-c2cc(=O)c3c(O)cc(OC)c(OC)c3o2)c(OC)c1OC [Example 9, 5-hydroxyl-7,8,2′,3′,4′-penta methoxyl-flavone] | 258.4 ± 60.2 /10 min | 241.1 ± 34.1 /10 min | 314.2 ± 67.9 /10 min | 183.5 ± 45.9 /10 min | 194.3 ± 45.1 /10 min | 317.2 ± 80.9 /10 min | 129.0 ± 40.2 /10 min | 126.3 ± 39.8 /10 min | 6 | 60** % | 7 | 70** % | 8 | 80*** % | 49.14 ± 16.71 | 3.31 ± 1.81 | 72.31 ± 21.42 | 2.91 ± 1.52 | 85.16 ± 21.97 | 2.12 ± 1.12 | Times of activities in 24 h after drug administration/10 min ([1]; 100 mg/kg, n = 10): 323.5 ± 62.4 /10 min
5 | COc1ccc(-c2cc(=O)c3c(OC)c(OC)c(OC)cc3o2)cc1OC [Example 10, 5,6,7,3′,4′-penta methoxyl-flavone] | 289.3 ± 50.1 /10 min | 275.6 ± 44.1 /10 min | 315.6 ± 76.3 /10 min | 257.2 ± 61.3 /10 min | 260.1 ± 58.2 /10 min | 325.3 ± 80.2 /10 min | 131.2 ± 30.8 /10 min | 231.6 ± 44.2 /10 min | 2 | 20% | 5 | 50** % | 6 | 60** % | 31.72 ± 21.73 | 5.42 ± 1.58 | 39.41 ± 21.74 | 3.90 ± 1.34 | 59.21 ± 22.41 | 3.81 ± 1.63 | Times of activities in 24 h after drug administration/10 min ([1]; 100 mg/kg, n = 10): 304.1 ± 82.5 /10 min
